Data from article PMC9927457 (Microbiology Spectrum, 2023).
Values after ≈ are worked out from the molar mass of the structure shown.

Columns and labels:
[1] = tested on: M. tuberculosis wild-type strain; test: MIC against wild-type M. tuberculosis; type: cell-based, Mycobacterium tuberculosis; conditions: Mycobacterium tuberculosis, 120 h, concentration required to inhibit growth by 90%; 5 days culture; read-out: MIC Wild type
[2] = tested on: M. tuberculosis strain under expressing LepB (LepB-UE); test: microbe, parasite or virus in culture; type: cell-based, Mycobacterium tuberculosis; conditions: for MIC: Mycobacterium tuberculosis, 120 h
HepG2 cells = test: HepG2 cytotoxicity; type: cell-based, human; conditions: Homo sapiens, HepG2, 72 h, 3 days exposure, CellTiter-Glo
Protocol: HepG2 cells were used to measure eukaryotic cytotoxicity. Viability of HepG2 was measured using CellTiter-Glo reagent (Promega) after 3 days of exposure to compounds. […] Staurosporine controls (maximum inhibition) and a staurosporine dose response were included on every plate.

[3] = tested on: intracellular M. tuberculosis (MTB) in RAW 264.7 macrophages; test: Activity against intracellular M. tuberculosis in macrophages (high-content microscopy); type: cell-based; conditions: Mycobacterium tuberculosis, RAW264.7, 72 h, intracellular M. tuberculosis in RAW 264.7 macrophages
Protocol: (§1) Murine RAW 264.7 macrophages (ATCC TIB-71) were infected with M. tuberculosis DsRed (DREAM8) ([29]) as described at a multiplicity of infection of 1 for 24 h, washed, harvested, and dispensed into 384-well plates ([30]). Infected macrophages were exposed to compounds for 72 h; cell nuclei were stained with SYBR green I. Plates were imaged with an ImageXpress Micro High Content Screening System (Molecular Devices) using a ×4 objective and FITC and Texas Red channels. MetaXpress was used to determine the integrated intensity of bacteria or macrophages. […] Isoniazid and staurosporine controls (maximum inhibition) and dose responses were included on every plate.

RAW 264.7 macrophages = test: Cytotoxicity against infected macrophages; type: cell-based, murine; conditions: Mus musculus; infected RAW264:7 cells, 72 h; read-out: IC50 Macrophage
Protocol: as §1

in vitro = conditions: human
Protocol: (§2) Permeability was measured across Caco-2 cells cultured in a Millipore 96-well Caco-2 plate. For apical to basolateral (A→B) permeability, 10 μM compound was added to the apical (A) side and amount of permeation was determined on the basolateral (B) side; for basolateral to apical (B→A) permeability, the compound was added to the B side and the amount of permeation was determine on the A side. Time points were taken at 2 h.
(§3) Table S2. Permeability. Permeability was measured using Caco-2 cells after 1 and 2 hours incubation with compound. (A→B) is Apical to Basolateral; (B→A) is Basolateral to Apical. Data is expressed as permeability (10-6 cm s-1). dQ/dt is rate of permeation, C0 is initial concentration […]
(§4) Article Duration direction value replicate replicate mean recovery

Caco-2 cells = test: Caco-2 permeability
Protocol: as §2, §3, §4

[4] = Microsomal metabolic stability; conditions: human, pH 7.4
Protocol: as §2
Table S3. Metabolic stability. Metabolic stability was measured using human liver microsomes. […]

CYP2B6 = molecular target: T1, CYP2B6 (Homo sapiens, UniProt P20813); test: Cytochrome P450 inhibition
T1 sequence (P20813 1-491): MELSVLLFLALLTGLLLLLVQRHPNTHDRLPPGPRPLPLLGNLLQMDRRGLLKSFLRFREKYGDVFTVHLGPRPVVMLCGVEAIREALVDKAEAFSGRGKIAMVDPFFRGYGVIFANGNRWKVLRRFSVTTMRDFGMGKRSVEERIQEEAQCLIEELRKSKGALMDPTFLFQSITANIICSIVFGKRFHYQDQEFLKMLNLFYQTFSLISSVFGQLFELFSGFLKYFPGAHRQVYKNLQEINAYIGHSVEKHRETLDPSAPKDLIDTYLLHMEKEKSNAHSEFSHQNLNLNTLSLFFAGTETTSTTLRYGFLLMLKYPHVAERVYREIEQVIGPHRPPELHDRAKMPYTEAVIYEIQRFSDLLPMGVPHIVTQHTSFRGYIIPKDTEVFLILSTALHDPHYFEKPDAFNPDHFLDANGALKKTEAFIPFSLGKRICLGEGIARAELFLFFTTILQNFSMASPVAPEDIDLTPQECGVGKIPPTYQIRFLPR
Protocol: (§5) Table S4. Inhibition of cytochrome P450s.
(§6) Compounds were tested for inhibition of P450s using the enzyme substrate pairs and conditions noted. IC50s (µM) were calculated. Control P450 inhibitors were included for each isoform.
(§7) For each compound, the analytical method was developed as follows. Analyte signal was optimized for each compound by ESI positive or negative ionization mode. An MS2 scan or an SIM scan was used to optimize fragmenter voltage and a product ion analysis was used to identify the best fragment for analysis. The collision energy was optimized using a product ion or MRM scan. An ionization ranking was assigned indicating the compound’s ease of ionization. Samples […]
(§8) 1200 HPLC and a CTC PAL chilled autosampler, all controlled by MassHunter software (Agilent).
(§9) After separation on a C18 reverse phase HPLC column (Agilent Zorbax StableBond 3.5µm, 2.1 x 30 mm) using an acetonitrile -water gradient system, peaks were analyzed by mass spectrometry (MS) using ESI ionization in MRM mode.
(§10) (1 picture or pasted object on this page, not shown here)
(§11) Serial dilutions of a 10 mM stock solution were prepared in acetonitrile:DMSO (9:1). The final DMSO concentration was < 0.2%. Compounds were incubated with human liver microsomes in the presence of 2 mM NADPH in 100 mM potassium phosphate (pH 7.4) containing 5 mM magnesium chloride and a probe substrate, in a 200 µl assay final volume in duplicate. The probe substrate concentrations including bupropion (CYP2B6), amodiaquine (CYP2C8), tolbutamide (CYP2C9), mephenytoin (CYP2C19), dextromethorphan (CYP2D6) and midazolam/testosterone […]
(§12) After incubation at 37 °C, reactions were terminated by addition of methanol containing internal standard (propranolol) for analytical quantification. The quenched samples were kept on ice for 10 min and centrifuged at 4 °C for 10 min. The supernatant was removed and the probe substrate metabolite was analyzed by LC-MS/MS (Agilent Technologies Triple Quad LC/MS). A decrease in the formation of the metabolite compared to vehicle control

CYP2C19 = CYP2C19 (Homo sapiens, UniProt P33261); test: biochemical
Protocol: as §5, §6, §7, §8, §9, §10, §11, §12

CYP2C8 = molecular target: T2, CYP2C8 (Homo sapiens, UniProt P10632); test: biochemical
T2 sequence (P10632 1-490): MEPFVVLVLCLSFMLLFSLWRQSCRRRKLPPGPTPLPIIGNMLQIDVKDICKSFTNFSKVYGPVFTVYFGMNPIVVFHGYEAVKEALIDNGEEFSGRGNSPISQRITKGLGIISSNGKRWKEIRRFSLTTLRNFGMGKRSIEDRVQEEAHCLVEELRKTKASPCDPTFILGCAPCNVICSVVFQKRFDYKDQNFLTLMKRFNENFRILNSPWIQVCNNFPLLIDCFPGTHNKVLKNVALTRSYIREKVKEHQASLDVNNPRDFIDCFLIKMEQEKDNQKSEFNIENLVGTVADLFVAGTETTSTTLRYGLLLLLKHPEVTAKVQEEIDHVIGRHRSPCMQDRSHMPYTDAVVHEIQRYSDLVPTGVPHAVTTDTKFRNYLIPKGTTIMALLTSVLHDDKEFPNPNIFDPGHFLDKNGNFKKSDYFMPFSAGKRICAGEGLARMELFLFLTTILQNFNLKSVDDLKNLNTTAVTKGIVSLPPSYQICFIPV
Protocol: as §5, §6, §7, §8, §9, §10, §11, §12

CYP2C9 = CYP2C9 (Homo sapiens, UniProt P11712); test: biochemical
Protocol: as §5
(§13) Compounds were tested for inhibition of P450s using the enzyme substrate pairs and conditions noted. IC50s (µM) were calculated. Control P450 inhibitors were included for each isoform. […]
as §11, §12

CYP2D6 = CYP2D6 (Homo sapiens, UniProt P10635); test: biochemical
Protocol: as §5, §13, §8, §9, §11, §12

CYP3A4 = CYP3A4 (Homo sapiens, UniProt P08684); test: Cytochrome P450 inhibition; type: in vitro ADME; conditions: liver microsomes
Protocol: as §5, §6, §7, §8, §9, §10, §11, §12

[5] = Plasma protein binding (Rapid Equilibrium Dialysis); type: in vitro ADME, human; conditions: human; for fraction unbound at 4 h, 5 µM: plasma
Protocol: Molecule fraction fraction Post-Assay
Table S5. Plasma protein binding
Protein binding was measured in human plasma using Rapid Equilibrium Dialysis (RED) devices (Pierce) according to the manufacturers’ instructions; 5 µM compounds in plasma were dialysed against PBS for 4 h at 37C. Compounds were detected by LC-MS/MS in plasma and PBS

Chain of CYP3A4 (P08684 2-503): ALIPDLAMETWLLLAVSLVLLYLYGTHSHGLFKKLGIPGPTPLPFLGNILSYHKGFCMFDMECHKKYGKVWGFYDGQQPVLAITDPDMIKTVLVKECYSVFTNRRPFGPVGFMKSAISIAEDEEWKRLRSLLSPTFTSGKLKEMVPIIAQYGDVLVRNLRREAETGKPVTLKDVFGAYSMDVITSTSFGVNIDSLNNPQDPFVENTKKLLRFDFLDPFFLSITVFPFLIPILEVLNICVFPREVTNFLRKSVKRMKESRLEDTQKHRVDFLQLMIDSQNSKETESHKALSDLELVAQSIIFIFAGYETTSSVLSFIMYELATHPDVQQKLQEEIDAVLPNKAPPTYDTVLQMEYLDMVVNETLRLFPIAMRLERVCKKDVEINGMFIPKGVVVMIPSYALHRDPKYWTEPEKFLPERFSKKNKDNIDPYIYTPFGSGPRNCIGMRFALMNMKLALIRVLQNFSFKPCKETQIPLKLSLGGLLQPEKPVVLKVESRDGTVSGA
Chain of CYP2C9 (P11712 whole entry): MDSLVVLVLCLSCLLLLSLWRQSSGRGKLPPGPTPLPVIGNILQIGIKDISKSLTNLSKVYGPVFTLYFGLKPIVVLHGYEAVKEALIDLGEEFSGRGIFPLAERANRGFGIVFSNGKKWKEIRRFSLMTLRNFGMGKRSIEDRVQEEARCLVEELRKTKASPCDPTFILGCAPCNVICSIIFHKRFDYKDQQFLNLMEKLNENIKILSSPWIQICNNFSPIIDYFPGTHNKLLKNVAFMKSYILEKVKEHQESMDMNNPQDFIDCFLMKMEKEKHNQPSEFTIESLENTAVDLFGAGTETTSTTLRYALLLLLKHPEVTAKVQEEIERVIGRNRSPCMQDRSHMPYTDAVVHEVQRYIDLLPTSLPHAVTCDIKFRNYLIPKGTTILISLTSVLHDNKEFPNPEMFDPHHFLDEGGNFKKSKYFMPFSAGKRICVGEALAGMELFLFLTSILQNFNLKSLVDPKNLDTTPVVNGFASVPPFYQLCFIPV
Chain of CYP2D6 (P10635 whole entry): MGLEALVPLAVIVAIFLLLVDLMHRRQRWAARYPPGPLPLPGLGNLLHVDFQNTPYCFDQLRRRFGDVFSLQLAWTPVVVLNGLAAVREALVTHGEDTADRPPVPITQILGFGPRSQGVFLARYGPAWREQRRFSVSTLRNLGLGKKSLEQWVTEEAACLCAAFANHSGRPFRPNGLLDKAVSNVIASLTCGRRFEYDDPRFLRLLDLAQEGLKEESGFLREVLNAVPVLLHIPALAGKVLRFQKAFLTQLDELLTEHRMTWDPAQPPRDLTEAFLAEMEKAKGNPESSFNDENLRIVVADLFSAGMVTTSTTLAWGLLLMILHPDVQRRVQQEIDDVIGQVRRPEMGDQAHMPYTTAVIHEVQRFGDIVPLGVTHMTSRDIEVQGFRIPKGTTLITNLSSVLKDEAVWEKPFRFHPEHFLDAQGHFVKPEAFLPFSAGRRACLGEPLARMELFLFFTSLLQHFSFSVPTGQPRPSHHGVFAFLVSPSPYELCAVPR
Chain of CYP2C19 (P33261 whole entry): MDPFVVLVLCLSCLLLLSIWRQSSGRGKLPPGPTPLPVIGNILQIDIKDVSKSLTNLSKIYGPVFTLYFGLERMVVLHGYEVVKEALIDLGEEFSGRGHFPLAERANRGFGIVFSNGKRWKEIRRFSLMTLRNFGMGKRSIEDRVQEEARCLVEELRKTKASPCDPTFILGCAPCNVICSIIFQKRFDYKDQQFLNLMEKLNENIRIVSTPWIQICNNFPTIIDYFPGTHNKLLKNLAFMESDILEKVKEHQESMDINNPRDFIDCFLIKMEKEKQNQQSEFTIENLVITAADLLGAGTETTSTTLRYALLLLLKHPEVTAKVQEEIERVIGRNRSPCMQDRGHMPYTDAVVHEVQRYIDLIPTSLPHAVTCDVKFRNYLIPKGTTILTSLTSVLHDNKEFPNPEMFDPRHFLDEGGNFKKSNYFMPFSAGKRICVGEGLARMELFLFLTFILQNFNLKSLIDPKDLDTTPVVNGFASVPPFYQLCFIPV

CCCNC(=S)Nc1nc2c(Cl)cccc2s1 [Molecule 31, 1-(4-chlorobenzo[d]thiazol-2-yl)-3-propyl thiourea]
MIC [1]: > 100 µM
MIC LepB-UE [2]: 14 ± 2.0 µM (≈ 4 µg/mL)
MIC [2]: 14 µM (≈ 4 µg/mL)
IC50 (HepG2 cells): > 100 µM
IC50 [3]: 11 ± 2.2 µM
IC50 (RAW 264.7 macrophages): > 100 µM

COCCCNC(=S)Nc1nc2ccccc2s1 [Molecule 24, 1-(benzo[d]thiazol-2-yl)-3-(3-methoxypropyl)thiourea]
MIC [1]: 65 ± 21 µM (≈ 18.3 µg/mL)
MIC [2]: 58 ± 1 µM (≈ 16.3 µg/mL)
IC50 (HepG2 cells): 65 ± 60 µM
Papp A→B at 2 h, 10 µM (in vitro; Caco-2): 17 ×10⁻⁶ cm/s
Papp B→A at 2 h, 10 µM (in vitro; Caco-2): 15 ×10⁻⁶ cm/s
efflux ratio at 2 h, 10 µM (in vitro; Caco-2): 0.87
recovery at 2 h, 10 μM (in vitro; Caco-2, recovery): 54%
dQ/dt (rate of permeation), mean (Caco-2 cells; A→B, assay duration 1 hr): 1.1E-04
dQ/dt (rate of permeation), mean (Caco-2 cells; A→B, assay duration 2 hr): 8.8E-05
dQ/dt (rate of permeation), mean (Caco-2 cells; B→A, assay duration 1 hr): 8.0E-05
dQ/dt (rate of permeation), mean (Caco-2 cells; B→A, assay duration 2 hr): 1.1E-04
half-life at 1 µM ([4]; liver microsomes): 8.2 min
microsomal CLint at 1 µM ([4]; microsomes): 282 µL/min/mg
IC50 (CYP2B6): > 20 µM
IC50 (CYP2C19): > 20 µM
IC50 (CYP2C8): > 20 µM
IC50 (CYP2C9): > 20 µM
IC50 (CYP2D6): > 20 µM
IC50 at 10 min (CYP3A4; pH 7.4, probe midazolam): > 20 µM
IC50 at 10 min (CYP3A4; pH 7.4, probe testosterone): > 20 µM
recovery at 4 h, 5 µM [5]: 76.5%
fraction unbound at 4 h, 5 µM ([5]; Mean plasma fraction Bound): 0.055
fraction unbound at 4 h, 5 µM ([5]; Mean plasma fraction Unbound Fuplasma): 0.055
